Measurements as given in patent publication US11013830B2, “5-hydroxytryptamine 1B receptor-stimulating agent for enhancing in vivo engraftment potential” (INSTITUT PASTEUR, priority 2015, dated 2021).

Tests used:
[1] = test system: muscle stem cells; settings: fluoxetine 18 mg/Kg for 6 weeks; after 21 days; n=8; placebo 25.7%±8.7
Description: Mice were anesthetised and injured with cardiotoxin 18 hours before grafting in the tibialis anterior. Before grafting the mice were anesthetised again and grafted with 10,000 cells in 40 nl in PBS. Mice were kept for 28 days until muscle regeneration was complete. […] Mice were sacrificed 5 weeks after the injection.
Tibialis anterior was carefully dissected and snap frozen in liquid-nitrogen-cooled isopentane for a few minutes and stored at −80° C. prior to cryosectioning (10 μm sections). Sections were kept at room temperature overnight before staining. Sections were then rehydrated in PBS for 10 minutes and fixed in 10% formalin for 3 minutes. The sections were then routinely stained with PLAP antibody manually.
Fluoxetine treatment was provided at 18 mg/Kg for 6 weeks to Rag^−/−γc^−/− mice. The tibialis anterior (TA) was injured and 18 h post injury 10,000 satellite cells (SC) coming from Tg:Pax7nGFP:PLAP:MyHC2E3FLacZ triple transgenic mice were grafted to the Rag^−/−γc^−/− mice pre-treated with fluoxetine.

[2] = test system: bone marrow cells; assay: Engraftment of Tg:ActinGFP bone marrow cells in irradiated Rag-/-γc-/- mice, GFP+ cells by cytometry; type: in vivo
Excerpt: For bone marrow analysis, animals were sacrificed and bone marrow was flushed and filtered through 40 μm cell strainer. The bulk was then directly assessed using Gallios A94303 (Beckman Coulter) and analysed with Kaluza flow cytometry software.
In order to investigate the potential effect of fluoxetine and vortioxetine on the bone marrow engraftment potential, Rag^−/−γc^−/− immunodeficient mice were used. These mice were irradiated at 95 cGy and then injected intravenously with 2 million cells taken from Tg:ActinGFP mouse (Okabe et al., 1997), to track the fate of the grafted cells.
Rag^−/−γc^−/− mice were treated with fluoxetine per os at 18 mg/Kg for 6 weeks. […] The number of GFP+ cells were investigated after 5 weeks in the bone marrow (the treatment was never discontinued). 63.7%±6.5 of GFP+ cells were detected in the placebo mice and 80.7%±8.4 GFP+ cells in the fluoxetine treated mice (p=0.0023, n=7, FIG. 2b,c). There was thus a 25% increase in engraftment efficiency in the fluoxetine treated animals.
To investigate the potential effect of vortioxetine on the engraftment potential, the same approach was used. The Rag^−/−γc^−/− were treated for 12 days by intra peritoneal injections at 20 mg/Kg. Twelve days after the beginning of the treatment, the mice were irradiated at 95 cGy and intravenously grafted with 2 million freshly isolated bone marrow cells from Tg:ActinGFP. 5 weeks after grafting the mice were sacrificed and bone marrow was flushed and analysed (FIG. 2d). The number of GFP+ cells was investigated after 5 weeks in the bone marrow (the treatment was never discontinued). 65.8%±5.5 cells were found in the placebo mice while 80.2%±5.8 cells were found in the vortioxetine treated animals (p=0.0079, n=5, FIG. 2e). There was thus a 21% increase in engraftment potential of bone marrow cells after vortioxetine treatment.
To further characterise the timing of vortioxetine beneficial effects, the previous experiment was repeated without 12 days of pre-treatment (FIG. 2e,f). Rag^−/−γc^−/− were irradiated and grafted 2 hours post irradiation fresh bone marrow from Tg:ActinGFP mice. The same placebo was used displaying 65.8%±5.5 of GFP+ cells and 77.2%7.6 GFP+ cells in the vortioxetine treated animals at the time of the irradiation (p=0.04, n=5, FIG. 2e,g). A similar increase in engraftment potential (17%) was observed when animals were not pre-treated.

[3] = test system: muscle stem cells; assay: Engraftment of grafted muscle stem cells (satellite cells) in cardiotoxin-injured tibialis anterior of Rag-/-γC-/- mice; type: in vivo; settings: 28 days post injury
Description: For image analysis, ImageJ 1.46r software was using between 10 different photos randomly taken per section and 3 sections minimum per experimental group. The pictures were converted in a binary image and then the pixel values were collected. For fibre size, the sections were immunostained with rabbit anti Laminin (Sigma-Aldrich #L9393) diluted at 1/200, overnight at 4° C. Secondary Donkey ant Rabbit 488 (DL488 JacksonImmuno #711486152) were used at 1/200 45 minutes at room temperature. The fibre perimeter was done automatically by using Pixcavator® software.
In order to investigate the potential effect of fluoxetine and vortioxetine on the muscle engraftment potential, Rag^−/−γC^−/− immunodeficient mice (Sanchez et al., 2013) were used in this study. Mice were injured with cardiotoxin in the tibialis anterior (TA) and injected with 10,000 satellite cells (SC) 24 hours after the injury. The satellite cells (SC) were obtained from Tg:Pax7nGFP::PLAP mice (Deprimo et al., 1996; Rocheteau et al., 2012), allowing the prospective isolation of a pure population of SC by FACS (Pax7 being a specific marker of SC) and the follow up (PLAP placental alkaline phosphatase being an ubiquitous marker). The TA had been sampled 28 days post engraftment and the number of PLAP fibres was counted.
The Rag^−/−γC^−/− were treated for 6 weeks with fluoxetine per os at 18 mg/Kg at the time of the graft and the treatment continued during the regeneration process (FIG. 1a). When regeneration was completed 28 days post injury, the percentage of PLAP positive fibres was 20.5%±6.5 against 36%±6.2 in the treated animals (p=0.016; n=5, FIG. 1b-d).
To investigate the potential effect of vortioxetine on the engraftment potential, the same approach was used. The Rag^−/−γC^−/− were treated for 12 days by intra peritoneal injections at 20 mg/Kg. Twelve days after the beginning of the treatment, the mice were injured and grafted with Pax7nGFP:PLAP SC. The treatment was continuous during the entire regenerative process (FIG. 1e). 28 days post injury the TA were sampled and stained for Laminin and PLAP. 19%±7.7 fibres were PLAP+ after placebo treatment against 36.1%±5.7 in the vortioxetine treated animals (p=0.028, n=4, FIG. 1f-h).

CNCCC(Oc1ccc(C(F)(F)F)cc1)c1ccccc1 (centres unmarked) [fluoxetine]
percentage of fibers PLAP+ (coming from the graft) [1]: 39%±6.6 | GFP+ cells in the bone marrow ([2]; fluoxetine per os 18 mg/Kg for 6 weeks before irradiation/graft, never discontinued, 5 weeks after grafting, n=7, placebo 63.7%±6.5): 80.7%±8.4 | increase in engraftment efficiency versus placebo ([2]; fluoxetine per os 18 mg/Kg, 6 weeks pre-treatment, 5 weeks after grafting): 25% | percentage of PLAP positive fibres ([3]; fluoxetine per os 18 mg/Kg for 6 weeks before graft and continued, n=5, placebo 20.5%±6.5): 36%±6.2 | engraftment potential of the injected SC versus placebo ([3]; fluoxetine per os 18 mg/Kg, 6 weeks pre-treatment): almost doubled

Cc1ccc(Sc2ccccc2N2CCNCC2)c(C)c1 [vortioxetine, 1-[2-(2,4-Dimethylphenylsulfanyl)phenyl]piperazine]
increase in engraftment potential of bone marrow cells versus placebo ([2]; vortioxetine 20 mg/Kg, 12 days pre-treatment, 5 weeks after grafting): 21% | GFP+ cells in the bone marrow ([2]; vortioxetine intra peritoneal 20 mg/Kg for 12 days before irradiation/graft, never discontinued, 5 weeks after grafting, n=5, placebo 65.8%±5.5): 80.2%±5.8 | GFP+ cells in the bone marrow ([2]; vortioxetine started at the time of the irradiation, without 12 days of pre-treatment, 5 weeks after grafting, n=5, placebo 65.8%±5.5): 77.2% | increase in engraftment potential versus placebo ([2]; vortioxetine, animals not pre-treated): 17% | percentage of PLAP+ fibres ([3]; vortioxetine intra peritoneal 20 mg/Kg for 12 days before graft and continued, n=4, placebo 19%±7.7): 36.1%±5.7 | engraftment potential of the injected SC versus placebo ([3]; vortioxetine intra peritoneal 20 mg/Kg, 12 days pre-treatment): more than doubled
